Assay results: patent US8008326B2, “4-benzyledene-piperidin derivatives” (Richter Gedeon Vegyeszeti Gyar Rt., priority 2004, dated 2011)
Read-outs that look alike come from different tables or passages of the source. Marks after values point to notes of the source that are not given here.

Experiments:
[1] = target: T1, NR2B containing NMDA receptors (rat cortical cells) (Rattus norvegicus, UniProt P35439+Q00960); assay: NMDA antagonist potency by intracellular calcium measurement with plate reader fluorimeter in rat cortical cell culture; format: cell-based; settings: fluorimetric method
T1 construct: The cells at this in vitro age are believed to express predominantly NR2B containing NMDA receptors; endogenous in cells; host or cells: primary neocortical cell culture from 17 day old rat embryos, 3-7 days in vitro
T1 sequence (Q00960 27-1482, other chains not shown): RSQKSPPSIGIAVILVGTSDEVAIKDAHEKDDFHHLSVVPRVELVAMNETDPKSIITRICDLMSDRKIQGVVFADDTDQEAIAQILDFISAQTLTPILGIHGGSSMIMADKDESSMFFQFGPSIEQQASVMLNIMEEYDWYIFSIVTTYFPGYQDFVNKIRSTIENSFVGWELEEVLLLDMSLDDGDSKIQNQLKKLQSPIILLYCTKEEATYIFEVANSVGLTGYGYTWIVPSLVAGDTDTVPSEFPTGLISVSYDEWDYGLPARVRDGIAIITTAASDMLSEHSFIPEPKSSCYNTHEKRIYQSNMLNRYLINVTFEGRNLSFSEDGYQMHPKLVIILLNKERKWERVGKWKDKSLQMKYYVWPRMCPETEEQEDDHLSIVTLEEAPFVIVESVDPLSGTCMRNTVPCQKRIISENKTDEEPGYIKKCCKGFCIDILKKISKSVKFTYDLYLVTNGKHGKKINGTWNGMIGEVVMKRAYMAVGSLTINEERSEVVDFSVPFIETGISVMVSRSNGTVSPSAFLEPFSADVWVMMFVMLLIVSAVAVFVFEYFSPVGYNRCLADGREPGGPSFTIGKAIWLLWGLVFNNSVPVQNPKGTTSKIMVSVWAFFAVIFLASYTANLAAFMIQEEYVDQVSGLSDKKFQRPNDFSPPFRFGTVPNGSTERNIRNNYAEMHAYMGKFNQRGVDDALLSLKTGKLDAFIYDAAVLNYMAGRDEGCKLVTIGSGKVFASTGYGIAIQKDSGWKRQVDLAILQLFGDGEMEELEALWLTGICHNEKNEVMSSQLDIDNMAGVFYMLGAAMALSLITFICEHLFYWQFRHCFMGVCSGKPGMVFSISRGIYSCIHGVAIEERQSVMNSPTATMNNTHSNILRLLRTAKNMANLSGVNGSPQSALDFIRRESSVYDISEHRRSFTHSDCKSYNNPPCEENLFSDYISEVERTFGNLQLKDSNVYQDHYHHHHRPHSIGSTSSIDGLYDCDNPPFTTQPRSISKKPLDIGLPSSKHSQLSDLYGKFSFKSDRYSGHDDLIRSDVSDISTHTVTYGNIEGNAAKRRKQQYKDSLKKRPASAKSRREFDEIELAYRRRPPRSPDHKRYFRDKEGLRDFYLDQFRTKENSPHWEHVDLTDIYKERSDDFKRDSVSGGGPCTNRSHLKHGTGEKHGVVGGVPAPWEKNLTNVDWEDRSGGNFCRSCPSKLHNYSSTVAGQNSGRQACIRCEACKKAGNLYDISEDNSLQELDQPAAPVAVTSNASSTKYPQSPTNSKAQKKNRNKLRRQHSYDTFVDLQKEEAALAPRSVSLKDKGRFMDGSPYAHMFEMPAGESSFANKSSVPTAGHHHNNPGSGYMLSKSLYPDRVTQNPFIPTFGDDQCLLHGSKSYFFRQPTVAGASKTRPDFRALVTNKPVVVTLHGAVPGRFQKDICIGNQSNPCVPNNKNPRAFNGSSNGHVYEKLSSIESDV
Description: Assessment of NMDA Antagonist Potency In Vitro by Measurement of Intracellular Calcium Concentration with a Plate Reader Fluorimeter in Rat Cortical Cell Culture
The cultures were used for the intracellular calcium measurements after 3-7 days in vitro. […] Before the measurement the cells were loaded with a fluorescent Ca^2+-sensitive dye, Fluo-4/AM (2 μM). To stop loading the cells were washed twice with the solution used for the measurement (140 mM NaCl, 5 mM KCl, 2 mM CaCl2, 5 mM HEPES, 5 mM HEPES-Na, 20 mM glucose, 10 μM glycine, pH=7.4). After washing, the test compounds were added to the cells in the above solution (90 μl well). Intracellular calcium measurements were carried out with a plate reader fluorimeter: elevation of Fluo-4-fluorescence and so, intracellular calcium concentration was induced by application of 40 μM NMDA. Inhibitory potency of the test compounds was assessed by measuring the reduction in the calcium elevation in the presence of different concentrations of the compounds.
(§1) Dose-response curves and IC50-values were calculated using data derived from at least three independent experiments. Inhibitory potency of a compound at a single concentration point was expressed as percent inhibition of the NMDA response. Sigmoidal concentration-inhibition curves were fit to the data and IC50 values were determined as the concentration that produces half of the maximal inhibition caused by the compound.

[2] = target: T2, recombinant NMDA receptors NR1/NR2A (HEK293 cells) (Homo sapiens, UniProt Q12879); assay: Inhibition of NMDA evoked cytosolic calcium elevation in HEK293 cells transfected with NR1/NR2A; format: cell-based
T2 construct: expressed in transfected cells
T2 sequence (Q12879 23-1464, other chains not shown): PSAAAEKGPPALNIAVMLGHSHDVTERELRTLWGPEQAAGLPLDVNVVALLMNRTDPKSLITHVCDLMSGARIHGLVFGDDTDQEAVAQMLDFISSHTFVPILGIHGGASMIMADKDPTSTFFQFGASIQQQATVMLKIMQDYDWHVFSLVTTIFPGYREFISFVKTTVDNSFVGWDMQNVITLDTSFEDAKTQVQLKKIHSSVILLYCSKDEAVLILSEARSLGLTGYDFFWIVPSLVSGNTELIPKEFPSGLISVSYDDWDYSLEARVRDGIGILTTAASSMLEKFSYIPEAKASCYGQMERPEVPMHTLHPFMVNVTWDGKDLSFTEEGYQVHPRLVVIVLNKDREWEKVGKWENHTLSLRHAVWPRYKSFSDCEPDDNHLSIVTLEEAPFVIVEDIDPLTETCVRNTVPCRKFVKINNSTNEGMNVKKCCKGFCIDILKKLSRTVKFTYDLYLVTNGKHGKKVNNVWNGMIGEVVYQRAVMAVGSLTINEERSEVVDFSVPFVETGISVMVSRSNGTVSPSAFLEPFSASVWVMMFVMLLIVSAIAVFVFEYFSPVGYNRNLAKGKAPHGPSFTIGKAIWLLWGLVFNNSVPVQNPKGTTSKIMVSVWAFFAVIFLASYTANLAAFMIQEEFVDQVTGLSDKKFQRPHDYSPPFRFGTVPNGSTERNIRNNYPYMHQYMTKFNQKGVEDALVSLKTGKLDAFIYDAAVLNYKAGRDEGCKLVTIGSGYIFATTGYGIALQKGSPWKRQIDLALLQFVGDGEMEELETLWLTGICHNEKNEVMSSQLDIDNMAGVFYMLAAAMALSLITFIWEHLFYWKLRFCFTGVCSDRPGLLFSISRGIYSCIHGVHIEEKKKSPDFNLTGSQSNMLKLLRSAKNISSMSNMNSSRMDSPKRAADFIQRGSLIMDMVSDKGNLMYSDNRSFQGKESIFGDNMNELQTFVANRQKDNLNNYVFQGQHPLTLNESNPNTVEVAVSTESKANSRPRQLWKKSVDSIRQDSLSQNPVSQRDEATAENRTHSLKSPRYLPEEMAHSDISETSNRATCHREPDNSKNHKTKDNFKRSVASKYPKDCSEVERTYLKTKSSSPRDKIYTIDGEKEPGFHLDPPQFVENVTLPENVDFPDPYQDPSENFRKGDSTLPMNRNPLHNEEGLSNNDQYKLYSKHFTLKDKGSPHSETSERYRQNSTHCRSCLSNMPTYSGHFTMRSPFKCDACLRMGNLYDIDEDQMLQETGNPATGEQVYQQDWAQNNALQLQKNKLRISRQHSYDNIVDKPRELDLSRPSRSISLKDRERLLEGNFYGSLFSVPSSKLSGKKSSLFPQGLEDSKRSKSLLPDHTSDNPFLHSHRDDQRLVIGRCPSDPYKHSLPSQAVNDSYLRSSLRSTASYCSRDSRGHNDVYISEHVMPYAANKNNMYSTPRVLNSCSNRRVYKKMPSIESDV
Description: Expression of Recombinant NMDA Receptors
(1997); Neurochemistry International, 43, 19-29. (2003)]. […] Compounds were tested for their inhibitory action on NMDA evoked cytosolic calcium elevations in fluorescent calcium measurements. Studies were performed 48-72 h after addition of the inducing agent. Ketamine (500 μM) was also present during the induction in order to prevent cytotoxicity.
as §1

NMRI mice [3] = assay: Mouse formalin test, second phase, oral administration; format: in vivo; settings: 15 min before formalin, licking 20 to 25 min after injection
Description: Injection of diluted formalin into the hind paw of rats or mice is known to elicit a biphasic pain-related behaviour measured as time spent by licking/biting of the injured paw. The second phase is generally defined as pain related events detected in the 15-60 min. time interval after formalin injection, with peak activity at around 30 min. It is known that NMDA receptors are involved in the second phase of response to formalin injection and this behavioural response is sensitive to blockade of NMDA receptors [Dickenson, A. and Besson J.-M. (Editors): Chapter 1, pp. 6-7: Animal models of Analgesia; and Chapter 8, pp. 180-183. Mechanism of Central Hypersensitivity: Excitatory Amino Acid Mechanisms and Their Control—In Pharmacology of Pain. Springer-Verlag (Berlin) 1997.] Therefore, we used the second phase of formalin test to characterize the efficacy of compounds in vivo. Inhibition of the second phase of response is considered to indicate an analgesic effect against chemically-induced persistent pain [Hurker, S., et al.: Formalin Test in Mice, a Useful Technique for Evaluating Mild Analgesics, Journal of Neuroscience Methods, 14 (1985) 69-76.]
Male NMRI […] (20-25 g) were used. Prior to the experiment any solid food was withdrawn for approx. 16 hours but the animals had free access to 20% glucose solution. The animals were allowed 1 hour acclimatization period in a glass cylinder (cc. 15 cm in diameter), then moved to an identical cylinder with a mirror placed behind to facilitate observation. The test substances were suspended in 5% tween-80 (10 ml per kg body weight). and administered orally by gavage 15 min before the formalin injection (20 μl of 1% formalin in 0.9& saline injected subcutaneously into the dorsal surface of the right hindpaw). The time spent by licking and biting of the injected paw was measured from 20 to 25 min. after the formalin injection.

NMRI mice [4] = assay: Spontaneous locomotor activity (LMA) in mice; format: in vivo, mouse; settings: oral
Description: Measurement of Spontaneous Locomotor Activity in Mice
Male NMRI mice weighing 20-22 g were used in the experiments.
Spontaneous locomotor activity was measured in a four-channel activity monitor. The apparatus consisted of acrylic cages (43 cm×43 cm×32 cm) equipped with 2×16 pairs of photocells along all the bottom axis of the cage. An additional array of photocells (16 pairs) was placed along two opposite sides of the cage at the height of 10 cm in order to detect rearing responses.
Experimental groups consisted of 10 animals. Thirty minutes after the oral administration of the test compound or vehicle (tween-80), the animals were individually placed in one of four cages for one hour. Horizontal and vertical movements were determined as the number of beam interruptions for one hour at 15 ruin intervals.
Mean±SE of horizontal activity data of each group was calculated then percentual changes compared to the control (vehicle-treated) group were determined. A compound was considered to cause locomotor stimulation when its effect exceeded 50% increase in beam interruptions. Consequently, doses defined as free from stimulatory action (LMAfree) produced less than 50% increase.

[5] = cited from earlier work
[6] = 40 μM NMDA, read-out: Rat cortical cells (NR2B) appr. IC50
[7] = J. Pharmacol. Exp. Ther. 302 (2002), Behav. Pharmacol. 14 (2003)
[8] = other group, Neuropharmacology 38 (1999)

## O=C(Nc1ccc2[nH]c(=O)oc2c1)C(=O)N1CCC(=Cc2ccccc2)CC1 [Compound 1, 2-(4-Benzylidene-piperidine-1-yl)-2-oxo-N-(2-oxo-2,3-dihydro-benzooxazol-6-yl)-acetamide]
[1]; [6]
  IC50: < 50 nM
[2]; HEK293
  inhibition at 15 µM: < 30%
NMRI mice [3]
  ED50: 1 mg/kg
NMRI mice [4]; dose 60 mg/kg
  LMA % increase: 35* %
NMRI mice [4]; dose 120 mg/kg
  LMA % increase: 69%

## O=C(CCN1CCC(Cc2ccc(F)cc2)CC1)c1ccc2[nH]c(=O)oc2c1 [EMD 95885, reference compound]
[1]; reference compounds, read-out: rat cortical cells IC50
  IC50: 35 nM
[2]; 10 μM
  NR1-3/NR2A % inhibition at 10 μM: 0.1%

## CS(=O)(=O)Nc1ccc(NC(=O)C(=O)N2CCC(=Cc3ccccc3)CC2)cc1 [Compound 10]
[1]; [6]
  IC50: 50 to 500 nM

## O=C(Nc1ccc2[nH]c(=O)oc2c1)C(=O)N1CCC(Cc2ccccc2)CC1 [A, 2-(4-benzyl-piperidin-1-yl)-2-oxo-N-(2-oxo-2,3-dihydro-benzoxazol-6-yl)-acetamide]
NMRI mice [3]
  ED50: 0.85 mg/kg
NMRI mice [4]; dose 1 mg/kg
  LMA % increase: 34* %
NMRI mice [4]; dose 3 mg/kg
  LMA % increase: 62%

## O=C(Nc1ccc2[nH]c(=O)oc2c1)C(=O)N1CCC(=Cc2ccc(Cl)cc2)CC1 [Compound 11]
[1]; [6]
  IC50: < 50 nM

## O=C(Nc1ccc2[nH]c(=O)oc2c1)C(=O)N1CCC(=Cc2ccc(F)cc2)CC1 [Compound 41]
[1]; [6]
  IC50: < 50 nM
[2]; HEK293
  inhibition at 15 µM: < 30%

## O=c1[nH]c2ccc([S+]([O-])CCN3CCC(Cc4ccc(F)cc4)CC3)cc2o1 (stereo not shown) [CI-1041, 6-{2-[4-(4-fluoro-benzyl)-piperidin-1-yl]-ethanesulfinyl}-3H-benzooxazol-2-one]
NMRI mice [3]
  ED50: 2.4 mg/kg
NMRI mice [4]; dose 10 mg/kg
  LMA % inc.: 137%

## CS(=O)(=O)Nc1ccc(NC(=O)C(=O)N2CCC(=Cc3ccc(Cl)cc3)CC2)cc1 [Compound 20]
[1]; [6]
  IC50: 50 to 500 nM

## O=C1COc2cc(NC(=O)C(=O)N3CCC(=Cc4ccccc4)CC3)ccc2N1 [Compound 7]
[1]; [6]
  IC50: 500 to 1000 nM

## Cc1ccc(CC2(O)CCN(CCOc3ccc(O)cc3)CC2)cc1 [Ro 63-1908]
[5]; [7]
  effect on locomotor activity: increase locomotor activity

## O=C(Nc1ccc2[nH]c(=S)oc2c1)C(=O)N1CCC(=Cc2ccc(Cl)cc2)CC1 [Compound 16]
[1]; [6]
  IC50: 50 to 500 nM

## O=C(Nc1ccc2[nH]c(=S)oc2c1)C(=O)N1CCC(=Cc2ccccc2)CC1 [Compound 6]
[1]; [6]
  IC50: 50 to 500 nM

## O=C(Nc1ccc2[nH]c(=O)sc2c1)C(=O)N1CCC(=Cc2ccc(Cl)cc2)CC1 [Compound 15]
[1]; [6]
  IC50: < 50 nM

## COc1ccc(C=C2CCN(C(=O)C(=O)Nc3ccc4[nH]c(=O)[nH]c4c3)CC2)cc1 [Compound 32]
[1]; [6]
  IC50: < 50 nM
[2]; HEK293
  inhibition at 15 µM: < 30%

## Cc1ccc(CC2CCN(C(=O)C(=O)Nc3ccc4c(c3)CC(=O)N4)CC2)cc1 [B, 2-[4-[4-methyl-benzyl)-piperidin-1-yl]-2-oxo-N-(2-oxo-2,3-dihydro-1H-indol-5-yl)-acetamide]
NMRI mice [3]
  ED50: 0.48 mg/kg
NMRI mice [4]; dose 3.75 mg/kg
  LMA % increase: 72%
NMRI mice [4]; dose 7.5 mg/kg
  LMA % increase: 141%

## C[C@]12N[C@H](Cc3ccccc31)c1ccccc12 [MK-801, (+)-5-Methyl-10,11-dihydro-5H-dibenzo[a,d]cyclohepten-5,10-imine]
NMRI mice [3]
  ED50: 0.15 mg/kg
NMRI mice [4]; dose 0.1 mg/kg
  LMA % inc.: 114%
NMRI mice [4]; dose 0.3 mg/kg
  LMA % inc.: 217%

## Cn1c(=O)[nH]c2ccc(NC(=O)C(=O)N3CCC(=Cc4ccccc4)CC3)cc21 [Compound 3]
[1]; [6]
  IC50: 50 to 500 nM

## Cc1ccc(C=C2CCN(C(=O)C(=O)Nc3ccc4[nH]c(=O)n(C)c4c3)CC2)cc1 [Compound 23]
[1]; [6]
  IC50: 50 to 500 nM

## O=C1COc2cc(NC(=O)C(=O)N3CCC(=Cc4ccc(Cl)cc4)CC3)ccc2N1 [Compound 17]
[1]; [6]
  IC50: 500 to 1000 nM

## Cc1ccc(C=C2CCN(C(=O)C(=O)Nc3ccc4c(c3)OCC(=O)N4)CC2)cc1 [Compound 27]
[1]; [6]
  IC50: 50 to 500 nM

## Cc1ccc(C=C2CCN(C(=O)C(=O)Nc3ccc(NS(C)(=O)=O)cc3)CC2)cc1 [Compound 30]
[1]; [6]
  IC50: 50 to 500 nM

## C[C@@H]([C@@H](O)c1ccc(O)cc1)N1CCC(O)(c2ccccc2)CC1 [CP-101,606, (1S,2S)-1-(4-hydroxyphenyl)-2-(4-hydroxy-4-phenylpiperidine-1-yl)-1-propanol]
NMRI mice [3]
  ED50: > 20 mg/kg
[5]; [8]
  effect on locomotor activity: no such effect was observed
[5]; up to 56 mg/kg s.c. and 100 mg/kg i.p., Soc. Neurosc. Abstr. 21 (1995)
  locomotor stimulating effect: Lack of locomotor stimulating effect

## COc1ccc(C=C2CCN(C(=O)C(=O)Nc3ccc4[nH]c(=O)n(C)c4c3)CC2)cc1 [Compound 33]
[1]; [6]
  IC50: 50 to 500 nM

## O=C1Cc2cc(NC(=O)C(=O)N3CCC(=Cc4ccc(F)cc4)CC3)ccc2N1 [Compound 42]
[1]; [6]
  IC50: 500 to 1000 nM

## O=C1Cc2cc(NC(=O)C(=O)N3CCC(=Cc4ccc(Cl)cc4)CC3)ccc2N1 [Compound 14]
[1]; [6]
  IC50: 50 to 500 nM

## COc1ccc(C=C2CCN(C(=O)C(=O)Nc3ccc(NS(C)(=O)=O)cc3)CC2)cc1 [Compound 40]
[1]; [6]
  IC50: < 50 nM
[2]; HEK293
  inhibition at 15 µM: < 30%

## O=C(Nc1ccc2[nH]c(=O)sc2c1)C(=O)N1CCC(=Cc2ccccc2)CC1 [Compound 5]
[1]; [6]
  IC50: < 50 nM
[2]; HEK293
  inhibition at 15 µM: < 30%

## O=C(Nc1ccc2[nH]c(=O)[nH]c2c1)C(=O)N1CCC(=Cc2ccc(Cl)cc2)CC1 [Compound 12]
[1]; [6]
  IC50: < 50 nM

## C[C@@H](CN1CCC(Cc2ccccc2)CC1)[C@@H](O)c1ccc(O)cc1 [Ro 25.6981, R—(R*,S*)-1-(4-hydroxyphenyl)-2-methyl-3-[4-(phenylmethyl)piperidine-1-yl]-1-propanol]
[2]; HEK293, read-out: NR1-3/NR2A % inhibition at 10 μM
  inhibition at 10 µM: 1%
NMRI mice [3]
  ED50: > 20 mg/kg
[5]; [7]
  effect on locomotor activity: increase locomotor activity
[5]; [8]
  effect on locomotor activity: no such effect was observed

## Cc1ccc(C=C2CCN(C(=O)C(=O)Nc3ccc4[nH]c(=O)sc4c3)CC2)cc1 [Compound 25]
[1]; [6]
  IC50: < 50 nM

## Cc1ccc(C=C2CCN(C(=O)C(=O)Nc3ccc4[nH]c(=S)oc4c3)CC2)cc1 [Compound 26]
[1]; [6]
  IC50: 50 to 500 nM

## Cn1c(=O)[nH]c2ccc(NC(=O)C(=O)N3CCC(=Cc4ccc(Cl)cc4)CC3)cc21 [Compound 13]
[1]; [6]
  IC50: 50 to 500 nM

## Cc1ccc(C=C2CCN(C(=O)C(=O)Nc3ccc4[nH]c(=O)[nH]c4c3)CC2)cc1 [Compound 22]
[1]; [6]
  IC50: < 50 nM
[2]; HEK293
  inhibition at 15 µM: < 30%
